Experimental data as given in patent US9415007B2, “Cyanocobalamin low viscosity aqueous formulations for intranasal delivery” (PAR PHARMACEUTICAL INC., priority 2003, dated 2016).

Legend:
[1] = Uptake of Vitamin B12 into cerebrospinal fluid after intranasal and intramuscular administration; type: in vivo, human; conditions: intranasal administration compared with intramuscular injections
Excerpt: We conducted a non-blinded, single dose, parallel group study to compare the uptake of Vitamin B12 into the cerebrospinal fluid (CSF) after intranasal and intramuscular administration in healthy male and non-pregnant female volunteers. This study compared CSF levels to plasma levels produced by both formulations.
Thirty-six healthy male and non-pregnant female subjects, age 18 and over, were enrolled in the study. Eighteen subjects received a single intranasal dose of 500 mcg delivered as a 0.1 mL spray and eighteen subjects received a single intramuscular dose of 100 mcg delivered intramuscularly. Each subject visited the clinical site three times in a one-month period. These visits consisted of a screening visit, one dosing visit and a final visit.
After each dosing, each subject underwent lumbar puncture only once, with the retrieval of a total 4.0 mL of CSF (4 tubes, 1.0 mL per tube).
In addition to the above, on the day of dosing 7 mL blood samples were drawn before dosing and post dosing at 5, 10, 15 and 20 minutes, and at 0.5, 1, 1½, 2, 3, 4, 6, and 8 hours post-dose (prior to discharge).
The cerebrospinal fluid was evaluated for total Vitamin B12 content. […]
The levels of vitamin B12 were determined in both the CSF and blood serum using Vitamin B12 concentrations in the CSF will be analyzed for Qualitative determination of Vitamin B12 using a validated TOSOH Nex. […]

[2] = prior art (Merkus); not soluble at concentrations greater than; cited from earlier work

## 5,6-dimethyl-benzimidazolyl cyanocobamide [vitamin B12]
[1]
  ratio of vitamin B12 (CSF) to serum, intranasal versus intramuscular: higher
[2]
  solubility in an aqueous solution: ≤ 1%
